Source: patent US8628767B2, “Purine nucleoside phosphorylase as enzymatic activator of nucleoside prodrugs” (priority 2008, dated 2014)

Key:
[1] = molecular target: E. coli PNP (Escherichia coli, UniProt P0ABP8); assay: Substrate cleavage by wild-type E. coli PNP (HPLC); assay type: biochemical; details: 100 micromolar substrate, HPLC separation of base from nucleoside
Procedure: (§1) The method quantitatively measures the cleavage of substrates in vitro. The purine analog nucleosides (0.1 mM in 500 μl of 100 mM HEPES, pH 7.4, 50 mM potassium phosphate) are combined with 100 μg/ml Tv-PNP or wild-type E. coli PNP. The reaction mixtures are incubated at 25° C. for 1 hour, and the reactions stopped by boiling each sample for 2 minutes. Protein concentration and time of assay are varied depending on activity of enzyme for a particular substrate. Each sample is analyzed by reverse phase HPLC to measure conversion from substrate to product. The nucleoside and purine analogs are eluted from a Spherisorb ODSI (5 μm) column (Keystone Scientific, Inc., State College, Pa.) with a solvent containing 50 mM ammonium dihydrogen phosphate (95%) and acetonitrile (5%). Products are detected by absorbance at 254 nm, and are identified by comparing their retention times and absorption spectra with authentic control samples.
Numerous compounds are tested for efficiency as substrate for Tv-PNP in parallel comparison with E. coli PNP. […] The enzymes are incubated with 100 micromolar of each compound listed in the table and the rate of enzymatic cleavage is determined by HPLC separation of the base from the nucleoside.

[2] = system: T. vaginalis PNP; assay: Substrate cleavage by wild-type Tv-PNP (HPLC); assay type: biochemical, Trichomonas vaginalis; details: for rate of enzymatic cleavage by T. vaginalis PNP: 100 micromolar substrate, HPLC separation of base from nucleoside; for activity of Tv-PNP as compared to wild-type E. coli PNP: summary of Table 1
Procedure: as §1
Numerous compounds are tested for efficiency as substrate for Tv-PNP in parallel comparison with E. coli PNP. The compounds include various analogs of adenosine, of inosine, of MeP-dR, and of fluoro- or chloro-substituted adenosine. The enzymes are incubated with 100 micromolar of each compound listed in the table and the rate of enzymatic cleavage is determined by HPLC separation of the base from the nucleoside. […] It is appreciated that the greater biological activity of the Tv-PNP enzyme allows for greater activity in impairing abnormal cell growth when the Tv-PNP is used for treatment of pathological conditions using F-araA as a prodrug substrate.

Chain of E. coli PNP (P0ABP8 whole entry): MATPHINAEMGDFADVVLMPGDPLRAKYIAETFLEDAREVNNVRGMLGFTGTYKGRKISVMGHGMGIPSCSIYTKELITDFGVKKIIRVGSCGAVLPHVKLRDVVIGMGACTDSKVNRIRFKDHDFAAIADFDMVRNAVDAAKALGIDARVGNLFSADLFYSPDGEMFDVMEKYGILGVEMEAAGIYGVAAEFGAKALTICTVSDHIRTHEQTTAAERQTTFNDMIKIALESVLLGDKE

In the case of `O=c1[nH]cnc2ncn([C@@H]3O[C@H](CO)[C@@H](O)[C@H]3O)c12` [7-β-D-ribosyl-hypoxanthine], the “rate of enzymatic cleavage by E. coli PNP” value (“rate … by E. coli PNP” for short) [1] is reported as 5,200 nanomoles per milligrams per hour and the “rate of enzymatic cleavage by T. vaginalis PNP” value (shortened to “rate … by T. vaginalis PNP”) [2] is reported as 2,300 nanomoles per milligrams per hour.

In the case of `Nc1nc2ncn([C@@H]3O[C@H](CO)[C@@H](O)[C@H]3O)c2c(=S)[nH]1` [7-β-D-ribosyl-6-thioguanine], the “rate … by E. coli PNP” value [1] is reported as 66 nanomoles per milligrams per hour and the “rate … by T. vaginalis PNP” value [2] is reported as 435 nanomoles per milligrams per hour.

`Cc1ncnc2c1ncn2[C@@H]1O[C@H](CO)[C@@H](O)[C@@H]1O` [9-[β-D-arabinofuranosyl]-6-methylpurine] was tested, and the “rate … by E. coli PNP” value [1] was 14 nanomoles per milligrams per hour and the “rate … by T. vaginalis PNP” value [2] was 570 nanomoles per milligrams per hour.

With `Nc1nc(F)nc2c1ncn2[C@H]1C[C@H](O)[C@@H](CO)O1` [2-F-2′-deoxyadenosine (F-dAdo), 2-fluoro-2′-deoxyadenosine] the “rate … by E. coli PNP” value [1] was 435,000 nanomoles per milligrams per hour and the “rate … by T. vaginalis PNP” value [2] was 400,000 nanomoles per milligrams per hour.

`Cc1ncnc2c1ncn2[C@@H]1O[C@H]([C@H](C)O)[C@@H](O)[C@H]1O` [9-[5-methyl-(talo)-β-D-ribofuranosyl]-6-methylpurine] was tested, and the “rate … by E. coli PNP” value [1] was 915 nanomoles per milligrams per hour, the “rate … by T. vaginalis PNP” value [2] was 8,400 nanomoles per milligrams per hour and the “activity of Tv-PNP as compared to wild-type E. coli PNP” value [2] was “more activity”.

In the case of `OC[C@H]1O[C@@H](n2cnc3c(O)ncnc32)[C@H](O)[C@@H]1O` [Inosine, reference compound], the “rate … by E. coli PNP” value [1] is reported as 342,000 nanomoles per milligrams per hour and the “rate … by T. vaginalis PNP” value [2] is reported as 154,000 nanomoles per milligrams per hour.

For `Nc1ncnc2c1ncn2[C@H]1CC[C@@H](CO)O1` [2′,3′-dideoxyadenosine], the “rate … by E. coli PNP” value [1] was <2 nanomoles per milligrams per hour and the “rate … by T. vaginalis PNP” value [2] was 640 nanomoles per milligrams per hour.

In the case of `Nc1nc(F)nc2c1ncn2[C@@H]1O[C@@H](CO)[C@@H](O)[C@H]1O` [9-α-L-lyxofuranosyl-2-F-adenine, 9-(α-L-lyxofuranosyl)-2-fluoroadenine], the “rate … by E. coli PNP” value [1] is reported as 7,800 nanomoles per milligrams per hour, the “rate … by T. vaginalis PNP” value [2] is reported as 28,200 nanomoles per milligrams per hour and the “activity of Tv-PNP as compared to wild-type E. coli PNP” value [2] is reported as “more activity”.

In the case of `Cc1ncnc2c1ncn2[C@@H]1O[C@H](C)[C@@H](O)[C@H]1O` [9-[5-deoxy-β-D-ribofuranosyl]-6-methylpurine], the “rate … by E. coli PNP” value [1] is reported as 406 nanomoles per milligrams per hour and the “rate … by T. vaginalis PNP” value [2] is reported as 3,600 nanomoles per milligrams per hour.

`C[C@H]1O[C@@H](n2cnc3c(N)ncnc32)[C@H](O)[C@@H]1O` [5′-deoxyadenosine] was tested, and the “rate … by E. coli PNP” value [1] was 8,400 nanomoles per milligrams per hour and the “rate … by T. vaginalis PNP” value [2] was 50,000 nanomoles per milligrams per hour.

With `Nc1nc(Cl)nc2c1ncn2[C@H]1C[C@H](O)[C@@H](CO)O1` [2-Cl-2′-deoxyadenosine (Cl-dAdo), 2-chloro-2′-deoxyadenosine, reference compound] the “rate … by E. coli PNP” value [1] was 39,000 nanomoles per milligrams per hour, the “rate … by E. coli PNP” value ([1]; listed as Cl-dAdo) was 39,000 nanomoles per milligrams per h and the “rate … by T. vaginalis PNP” value [2] was 352,000 nanomoles per milligrams per hour. The “rate … by T. vaginalis PNP” value ([2]; listed as Cl-dAdo) was 320,000 nanomoles per milligrams per h and the “activity of Tv-PNP as compared to wild-type E. coli PNP” value [2] was “more activity”.

`Cc1ncnc2c1ncn2[C@@H]1O[C@H]([C@@H](C)O)[C@@H](O)[C@H]1O` [9-[5-methyl-(allo)-β-D-ribofuranosyl]-6-methylpurine] was tested, and the “rate … by E. coli PNP” value [1] was 47 nanomoles per milligrams per hour, the “rate … by T. vaginalis PNP” value [2] was 223 nanomoles per milligrams per hour and the “activity of Tv-PNP as compared to wild-type E. coli PNP” value [2] was “more activity”.

With `Cc1ncnc2c1ncn2[C@@H]1C[C@H](O)[C@@H](CO)O1` [9-[2-deoxy-α-D-ribofuranosyl]-6-methylpurine] the “rate … by E. coli PNP” value [1] was <1 nanomoles per milligrams per hour and the “rate … by T. vaginalis PNP” value [2] was <8 nanomoles per milligrams per hour.

`NC[C@H]1O[C@@H](n2cnc3c(N)ncnc32)[C@H](O)[C@@H]1O` [5′-amino-5′-deoxyadenosine] was tested, and the “rate … by E. coli PNP” value [1] was 540 nanomoles per milligrams per hour and the “rate … by T. vaginalis PNP” value [2] was 4,200 nanomoles per milligrams per hour.

`Nc1nc(Cl)nc2c1ncn2[C@H]1C[C@H](O)[C@@H](CO)O1` [2-Cl-2′-deoxyadenosine (α-L), 2-Cl-2′-deoxyadenosine] was tested, and the “rate … by E. coli PNP” value [1] was <1 nanomoles per milligrams per hour and the “rate … by T. vaginalis PNP” value [2] was <8 nanomoles per milligrams per hour.

With `Nc1ncnc2c1ncn2[C@@H]1O[C@H](CO)[C@H](O)[C@H]1O` [9-β-D-xylofuranosyl-adenine] the “rate … by E. coli PNP” value [1] was <2 nanomoles per milligrams per hour and the “rate … by T. vaginalis PNP” value [2] was 2 nanomoles per milligrams per hour.

`CO[C@@H]1[C@H](O)[C@@H](CO)O[C@H]1n1cnc2c(N)ncnc21` [2′-O^methyl-adenosine] was tested, and the “rate … by E. coli PNP” value [1] was <1 nanomoles per milligrams per hour and the “rate … by T. vaginalis PNP” value [2] was <10 nanomoles per milligrams per hour.

For `Cc1ncnc2c1ncn2[C@@H]1O[C@H](C(C)(C)O)[C@@H](O)[C@H]1O` [9-[5,5-dimethyl-β-D-ribofuranosyl]-6-methylpurine], the “rate … by E. coli PNP” value [1] was <1 nanomoles per milligrams per hour and the “rate … by T. vaginalis PNP” value [2] was <8 nanomoles per milligrams per hour.

With `C[C@H]1O[C@@H](n2cnc3c(N)nc(F)nc32)[C@H](O)[C@@H]1O` [2-F-5′-deoxy-adenosine, 2-fluoro-5′-deoxyadenosine] the “rate … by E. coli PNP” value [1] was 29,000 nanomoles per milligrams per hour, the “rate … by T. vaginalis PNP” value [2] was 50,000 nanomoles per milligrams per hour and the “activity of Tv-PNP as compared to wild-type E. coli PNP” value [2] was “more activity”.

In the case of `Nc1ncnc2c1ncn2[C@@H]1O[C@@H](CO)[C@@H](O)[C@H]1O` [9-α-L-lyxofuranosyl-adenine], the “rate … by E. coli PNP” value [1] is reported as 3,700 nanomoles per milligrams per hour and the “rate … by T. vaginalis PNP” value [2] is reported as 22,000 nanomoles per milligrams per hour.

With `Cc1ncnc2c1ncn2[C@@H]1O[C@@H](CI)[C@@H](O)[C@H]1O` [9-[5-deoxy-5-iodo-α-L-lyxofuranosyl]-6-methylpurine] the “rate … by E. coli PNP” value [1] was <1 nanomoles per milligrams per hour and the “rate … by T. vaginalis PNP” value [2] was <8 nanomoles per milligrams per hour.

For `Nc1ncnc2c1ncn2[C@@H]1O[C@H](CO)[C@@H](O)[C@@H]1O` [9-β-D-arabinofuranosyl-adenine], the “rate … by E. coli PNP” value [1] was 610 nanomoles per milligrams per hour and the “rate … by T. vaginalis PNP” value [2] was 38,000 nanomoles per milligrams per hour.

For `Cc1ncnc2c1ncn2[C@H]1C[C@H](O)[C@@H]([C@H](C)O)O1` [9-[5-methyl-(talo)-2-deoxy-β-D-ribofuranosyl]-6-methylpurine], the “rate … by E. coli PNP” value [1] was 3,600 nanomoles per milligrams per hour, the “rate … by T. vaginalis PNP” value [2] was 103,000 nanomoles per milligrams per hour and the “activity of Tv-PNP as compared to wild-type E. coli PNP” value [2] was “more activity”.

With `Cc1ncnc2c1ncn2[C@@H]1O[C@H](CO)[C@@H](O)[C@H]1O` [9-β-D-ribofuranosyl-6-methylpurine] the “rate … by E. coli PNP” value [1] was 96,000 nanomoles per milligrams per hour and the “rate … by T. vaginalis PNP” value [2] was 155,000 nanomoles per milligrams per hour.

With `NC(=O)[C@H]1O[C@@H](n2cnc3c(N)ncnc32)[C@H](O)[C@@H]1O` [5′-carboxamide of adenosine] the “rate … by E. coli PNP” value [1] was <1 nanomoles per milligrams per hour and the “rate … by T. vaginalis PNP” value [2] was 33 nanomoles per milligrams per hour.

For `Cc1ncnc2ncn([C@H]3C[C@H](O)[C@H](CO)O3)c12` [7-[2-deoxy-α-L-lyxofuranosyl]-6-methylpurine], the “rate … by E. coli PNP” value [1] was <1 nanomoles per milligrams per hour and the “rate … by T. vaginalis PNP” value [2] was <8 nanomoles per milligrams per hour.

In the case of `Nc1nc(F)nc2c1ncn2[C@@H]1O[C@H](CO)[C@@H](O)[C@H]1O` [2-F-adenosine], the “rate … by E. coli PNP” value [1] is reported as 215,000 nanomoles per milligrams per hour and the “rate … by T. vaginalis PNP” value [2] is reported as 185,000 nanomoles per milligrams per hour.

`OC[C@H]1O[C@@H](n2cnc3c(O)ncnc32)C[C@@H]1O` [2′-deoxyinosine, reference compound] was tested, and the “rate … by E. coli PNP” value [1] was 733,000 nanomoles per milligrams per hour and the “rate … by T. vaginalis PNP” value [2] was 660,000 nanomoles per milligrams per hour.

In the case of `Nc1nc(Cl)nc2c1ncn2[C@H]1C[C@H](O)[C@@H](CO)O1` [2-Cl-2′-deoxyadenosine (β-L), 2-Cl-2′-deoxyadenosine], the “rate … by E. coli PNP” value [1] is reported as <1 nanomoles per milligrams per hour and the “rate … by T. vaginalis PNP” value [2] is reported as <8 nanomoles per milligrams per hour.

`Nc1ncnc2c1ncn2[C@@H]1O[C@H](CO)[C@@H](O)[C@H]1O` [Adenosine, reference compound] was tested, and the “rate … by T. vaginalis PNP” value [2] was 501,000 nanomoles per milligrams per hour.
